Where two headings read alike, the source gives them in different places.
Tests used:
Type in all cases: cell-based
[1] = Cytotoxicity against HepG2; conditions: human, HepG2 cells, 26.0 uM highest concentration measured
[2] = Cytotoxicity against HeLa; conditions: human, HeLa cells, 26.0 uM highest concentration measured
[3] = Cytotoxicity against Hek 293; conditions: human, HEK293 cells, 26.0 uM highest concentration measured
[4] = tested on: carbon-starved M. tuberculosis H37Rv; test: Non-replicating IC90 determination by luciferase (carbon-starved cells); conditions: luciferase; for IC90 / IC99: Mycobacterium tuberculosis, H37RV; for IC99: 120 h, read-out: Against carbon starved non-replicating Mtb IC99 (uM, luciferase); for IC99 / Against carbon starved non-replicating Mtb IC99 (uM, luciferase): None = inhibition did not reach 99%
[5] = tested on: replicating M. tuberculosis H37Rv; test: microbe, parasite or virus in culture; conditions: None = inhibition did not reach 90%; for IC90: Mycobacterium tuberculosis, H37RV, read-out: Against Replicating Mtb IC90 (uM, GFP)
[6] = non-replicating carbon-starved Mtb, three independent experiments in triplicate, read-out: TB Growth Inhibition Activity, IC90 Non-replicating_luciferase
[7] = IC90 given in brackets beside IC99, read-out: Against carbon starved non-replicating Mtb IC90 (in brackets, luciferase)

| SMILES | IC50 [1] [µM] | IC50 [2] [µM] | IC50 [3] [µM] | IC90 [4, 6] [µM] | IC90 [5] [µM] | IC99 [4] [µM] | other results |
| --- | --- | --- | --- | --- | --- | --- | --- |
| Clc1cccc(CSc2nnc(-c3ccccc3)o2)c1 | > 26 | > 26 | > 26 | 4 | – | – | – |
| FC(F)(F)c1ccc(CSc2nnc(-c3ccccc3)o2)cc1 | > 26 | > 26 | > 26 | 1 | – | – | – |
| N#Cc1ccc(-c2nnc(SCc3ccccc3)o2)cc1 | > 26 | > 26 | > 26 | 8 | – | – | – |
| FC(F)(F)Oc1ccc(-c2nnc(SCc3ccccc3)o2)cc1 | > 26 | > 26 | > 26 | 2 | – | – | – |
| FC(F)(F)c1ccccc1CSc1nnc(-c2ccccc2)o1 | > 26 | > 26 | > 26 | 1 | – | – | – |
| FC(F)(F)c1cccc(-c2nnc(SCc3ccccc3)o2)c1 | > 26 | > 26 | > 26 | 31 | – | – | – |
| c1ccc(CSc2nnc(-c3ccc(-c4ccccc4)cc3)o2)cc1 | > 26 | > 26 | > 26 | – | – | – | – |
| CS(=O)(=O)c1ccccc1CSc1nnc(-c2ccccc2)o1 | > 26 | > 26 | > 26 | – | – | – | – |
| c1ccc(CNc2nnc(-c3ccccc3)o2)cc1 | > 26 | > 26 | > 26 | 4 | – | – | – |
| c1ccc(CSc2nnc(-c3cnco3)o2)cc1 | > 26 | > 26 | > 26 | 8 | – | – | – |
| N#Cc1cccc(CSc2nnc(-c3ccccc3)o2)c1 | > 26 | > 26 | > 26 | 8 | – | – | – |
| c1ccc(CSc2ncc(-c3ccccc3)o2)cc1 | > 26 | > 26 | > 26 | 62 | – | – | – |
| c1ccc(COc2nnc(-c3ccccc3)o2)cc1 | > 26 | > 26 | > 26 | 8 | – | – | – |
| COc1ccccc1CSc1nnc(-c2ccccc2)o1 | > 26 | > 26 | > 26 | 2 | – | – | – |
| c1ccc(-c2ccc(CSc3nnc(-c4ccccc4)o3)cc2)cc1 | > 26 | > 26 | > 26 | 8 | – | – | – |
| CS(=O)(=O)c1cccc(-c2nnc(SCc3ccccc3)o2)c1 | > 26 | > 26 | > 26 | 125 | – | – | – |
| N#Cc1ccccc1CSc1nnc(-c2ccccc2)o1 | > 26 | > 26 | > 26 | 4 | – | – | – |
| c1ccc(CSc2nnc(-c3cc4ccccc4o3)o2)cc1 | > 26 | > 26 | > 26 | 2 | – | – | – |
| FC(F)(F)Oc1ccc(CSc2nnc(-c3ccccc3)o2)cc1 | > 26 | > 26 | > 26 | 1 | – | – | – |
| c1ccc(-c2nnc(SCCN3CCCC3)o2)cc1 | > 26 | > 26 | > 26 | 16 | – | – | – |
| Fc1ccc(CSc2nnc(-c3ccccc3)o2)cc1 [drawing 136] | > 26 | > 26 | > 26 | 1 | – | – | – |
| COc1cccc(CSc2nnc(-c3ccccc3)o2)c1 | > 26 | > 26 | > 26 | 1 | – | – | – |
| COc1ccc(-c2nnc(SCc3ccccc3)o2)cc1 | > 26 | > 26 | > 26 | 31 | – | – | – |
| Clc1cccc(-c2nnc(SCc3ccccc3)o2)c1 | > 26 | > 26 | > 26 | 8 | – | – | – |
| N#Cc1cccc(-c2nnc(SCc3ccccc3)o2)c1 | > 26 | > 26 | > 26 | 8 | – | – | – |
| CS(=O)(=O)c1ccc(CSc2nnc(-c3ccccc3)o2)cc1 | > 26 | > 26 | > 26 | 31 | – | – | – |
| Cc1ccc(CSc2nnc(-c3ccccc3)o2)cc1 | > 26 | > 26 | > 26 | 1 | – | – | – |
| Cc1cccc(-c2nnc(SCc3ccccc3)o2)c1 | > 26 | > 26 | > 26 | 8 | – | – | – |

| SMILES | IC50 [1] [µM] | IC50 [2] [µM] | IC50 [3] [µM] | IC90 [4, 6] [µM] | IC90 [5] [µM] | IC99 [4] [µM] | other results |
| --- | --- | --- | --- | --- | --- | --- | --- |
| Fc1cccc(-c2nnc(SCc3ccccn3)o2)c1 [drawing 216] | – | – | – | – | 31 | 16 | – |
| COCCSc1nnc(-c2ccccc2)o1 [drawing 175] | – | – | – | – | 125 | 16 | – |
| COc1cc(-c2nnc(SCc3ccccn3)o2)ccc1F | – | – | – | – | – | 16 | Against Replicating Mtb IC90 (uM, GFP) [5]: None |
| [N-]=[N+]=NCCOCCNC(=O)CCCOc1ccc(CSc2nnc(-c3ccc(Cl)cc3)o2)nc1 [drawing 237] | – | – | – | – | 62 | 62 | – |
| COC(=O)c1ccc(CSc2nnc(-c3ccc(Cl)cc3)o2)nc1 | – | – | – | – | – | 16 | Against Replicating Mtb IC90 (uM, GFP) [5]: None |
| c1ccc(CSc2nnc(-c3ccncc3)o2)nc1 | – | – | – | – | > 500 | 500 | – |
| c1ccc(CSc2nnc(-c3cccnc3)o2)nc1 | – | – | – | – | > 500 | 250 | – |
| C#CCCCOc1cc(-c2nnc(SCc3ccccn3)o2)ccc1OC | – | – | – | – | – | 16 | Against Replicating Mtb IC90 (uM, GFP) [5]: None |
| OCC#CCSc1nnc(-c2ccc(Cl)cc2)o1 | – | – | – | – | 62 | 8 | – |
| Fc1ccc(CSc2nnc(-c3ccncc3)o2)cc1 | – | – | – | – | > 500 | – | Against carbon starved non-replicating Mtb IC99 (uM, luciferase) [4]: None |
| Brc1cccc(-c2nnc(SCc3ccccn3)o2)c1 [drawing 217] | – | – | – | – | 62 | 31 | – |
| Oc1cccc(-c2nnc(SCc3ccccn3)o2)c1 | – | – | – | – | 125 | 62 | – |
| COC(=O)CCCOc1ccc(CSc2nnc(-c3ccc(Cl)cc3)o2)nc1 [drawing 233] | – | – | – | – | 31 | 16 | – |
| Fc1ccc(-c2nnc(SCCN3CCN(c4ccccc4)CC3)o2)cc1 | – | – | – | – | 250 | – | IC90 [4, 7]: 4 µM; Against carbon starved non-replicating Mtb IC99 (uM, luciferase) [4]: None |
| C#CCOc1ccc(-c2nnc([S+]([O-])Cc3ccccn3)o2)cc1 (centres unmarked) | – | – | – | – | 31 | 31 | – |
| Fc1ccc(CSc2nnc(-c3ccc(Cl)cc3)o2)cc1 | – | – | – | – | > 500 | – | Against carbon starved non-replicating Mtb IC99 (uM, luciferase) [4]: None |
| CS(=O)(=O)c1ccc(-c2nnc(SCc3ccccc3)o2)cc1 | > 26 | > 26 | > 26 | – | – | – | – |
| CCSc1nnc(-c2ccccc2)o1 | – | – | – | – | 200 | 250 | – |
| C#CCCCOc1ccc(CSc2nnc(-c3ccc(F)cc3)o2)nc1 | – | – | – | – | 31 | 16 | – |
| CN1CCCCC1COc1nnc(-c2ccc(Cl)cc2)o1 (centres unmarked) | – | – | – | – | > 500 | 500 | – |
| c1ccc(-c2nnc(OCc3ccccn3)o2)cc1 | – | – | – | – | > 500 | – | Against carbon starved non-replicating Mtb IC99 (uM, luciferase) [4]: None |
| CCOC(=O)CSc1nnc(-c2ccccc2)o1 | – | – | – | – | 500 | 250 | – |
| c1ccc(-c2nnc(SCc3ccccn3)o2)cc1 [drawing 177] | – | – | – | – | 100 | 31 | – |
| c1ccc(-c2nnc(NCc3ccccn3)o2)cc1 | – | – | – | – | > 500 | – | Against carbon starved non-replicating Mtb IC99 (uM, luciferase) [4]: None |
| [O-][S+](Cc1ccccn1)c1nnc(-c2ccc(Cl)cc2)o1 (centres unmarked) [drawing 195] | – | – | – | – | 31 | 4 | – |
| [N-]=[N+]=NCCOCCNC(=O)CCCOc1ccc(C[S+]([O-])c2nnc(-c3ccc(F)cc3)o2)nc1 (centres unmarked) | – | – | – | – | 125 | 31 | – |
| Fc1ccc(-c2nnc(SCCN3CCCC(F)(F)C3)o2)cc1 | – | – | – | – | 250 | 250 | IC90 [4, 7]: 1 µM |
